Test results from patent US11028087B2, “2,6-disubstituted-9-cyclopentyl-9H-purines, use thereof as medicaments, and pharmaceutical compositions” (UNIVERZITA PALACKEHO V OLOMOUCI, priority 2017, dated 2021).

Columns and labels:
[1] = tested on: EOL-1 (eosinophilic leukaemia, carrying the fusion FIP1L1-PDGFRA); experiment: Calcein AM cytotoxicity assay; format: cell-based; details: Homo sapiens, EOL1, 72 h; EOL-1; Calcein AM, three days; read-out: EC50 values (μM) EOL-1
From the text: (§1) Cytotoxicity of the compounds is the major property determining their anticancer effect in vivo. One of the parameters used, as the basis for cytotoxicity assays, is the integrity of cytoplasmic membrane of viable cells. For example, a microtiter assay, which uses acetomethoxy derivate of calcein (Calcein AM), is widely used for evaluation of cell proliferation and cytotoxicity. This assay is used in drug screening programs and in chemosensitivity testing. Intracellular esterases of viable cells convert calcein AM to green-fluorescent calcein of which signal corresponds to the number of viable cells in the culture.
(§2) We have been using the following cell lines: MV4-11 (acute myeloid leukemia, FLT3-ITD positive), MOLM-13 (acute myeloid leukemia, FLT3-ITD positive), THP-1 (acute myeloid leukemia, wt FLT3), U937 (monocytic leukemia, wt FLT3), EOL-1 (eosinophilic leukaemia, carrying the fusion FIP1L1-PDGFRA), H1703 (non-small cell lung carcinoma, PDGFRA amplification). […] K562 and MCF-7 cell lines were maintained in DMEM supplemented with 10% fetal bovine serum, penicilin (100 U/ml) and streptomycin (100 μg/ml). All cell lines were cultivated at 37° C. in 5% CO2. For cytotoxicity assays, cells were seeded in appropriate densities into 96 well plates and the next day tested compounds were added at various concentrations in triplicates. Three days after drug addition, Calcein AM solution (final concentration 1 μg/ml; Thermo Scientific, USA) was added into each well and incubated for 1 h.

[2] = tested on: K562; experiment: Calcein AM cytotoxicity assay; format: cell-based; details: Homo sapiens, 72 h; K562; Calcein AM, three days; read-out: EC50 values (μM) K562
From the text: as §1, §2

[3] = tested on: MCF-7; experiment: Calcein AM cytotoxicity assay; format: cell-based; details: Homo sapiens, MCF7, 72 h; MCF-7; Calcein AM, three days; read-out: EC50 values (μM) MCF-7
From the text: as §1, §2

[4] = tested on: MOLM-13 (acute myeloid leukemia, FLT3-ITD positive); experiment: Calcein AM cytotoxicity assay; format: cell-based; details: Homo sapiens, 72 h; MOLM-13; Calcein AM, three days; read-out: EC50 values (μM) MOLM-13
From the text: as §1, §2

[5] = tested on: MV4-11 (acute myeloid leukemia, FLT3-ITD positive); experiment: Calcein AM cytotoxicity assay; format: cell-based; details: Homo sapiens, 72 h; MV4-11; Calcein AM, three days after drug addition; read-out: EC50 values (μM) MV4-11
From the text: as §1, §2

[6] = tested on: THP-1 (acute myeloid leukemia, wt FLT3); experiment: Calcein AM cytotoxicity assay; format: cell-based; details: Homo sapiens, 72 h; THP-1; Calcein AM, three days; read-out: EC50 values (μM) THP-1
From the text: as §1, §2

[7] = tested on: U937 (monocytic leukemia, wt FLT3); experiment: Calcein AM cytotoxicity assay; format: cell-based; details: Homo sapiens, U-937, 72 h; U937; Calcein AM, three days; read-out: EC50 values (μM) U937
From the text: as §1, §2

[8] = tested on: Kasumi-1 (acute myeloid leukemia, KIT mutation Asn822Lys); experiment: Calcein AM cytotoxicity assay; format: cell-based; details: Homo sapiens, 72 h; Kasumi-1; Calcein AM, three days; read-out: EC50 values (μM) Kasumi-1
From the text: as §1
We have been using the following cell lines: MV4-11 (acute myeloid leukemia, FLT3-ITD positive), MOLM-13 (acute myeloid leukemia, FLT3-ITD positive), THP-1 (acute myeloid leukemia, wt FLT3), U937 (monocytic leukemia, wt FLT3), EOL-1 (eosinophilic leukaemia, carrying the fusion FIP1L1-PDGFRA), H1703 (non-small cell lung carcinoma, PDGFRA amplification). They were maintained in RPMI-1640 supplemented with 10% fetal bovine serum, penicillin (100 U/ml) and streptomycin (100 μg/ml). Kasumi-1 (acute myeloid leukemia, KIT mutation Asn822Lys) cells were cultivated in RPMI-1640 supplemented with 15% fetal bovine serum, penicillin (100 U/ml) and streptomycin (100 μg/ml). K562 and MCF-7 cell lines were maintained in DMEM supplemented with 10% fetal bovine serum, penicilin (100 U/ml) and streptomycin (100 μg/ml). All cell lines were cultivated at 37° C. in 5% CO2. For cytotoxicity assays, cells were seeded in appropriate densities into 96 well plates and the next day tested compounds were added at various concentrations in triplicates. Three days after drug addition, Calcein AM solution (final concentration 1 μg/ml; Thermo Scientific, USA) was added into each well and incubated for 1 h. After this incubation period, fluorescence of the live cells was measured at 485 nm/538 nm (ex/em) with a Fluoroskan Ascent microplate reader (Labsystems).

[9] = molecular target: T1, CDK2/Cyclin E (Homo sapiens, UniProt P24941); experiment: Kinase inhibition assay with [γ-33P]ATP; format: biochemical; details: histone H1, 15 μM ATP; read-out: IC50 values (μM) CDK2
T1 construct: made in house; host or cells: Sf9 insect cells, baculoviral infection
Description: (§3) CDK1/Cyclin B and CDK2/Cyclin E kinases were produced in Sf9 insect cells via baculoviral infection and purified on a NiNTA column (Qiagen). CDK5/p35 and CDK7Cyclin H/MAT1, FLT3 WT, FLT3-ITD and FLT3 D835 were purchased from ProQinase GmbH. The kinase reactions were assayed with 1 mg/mL histone H1 (for CDK1, CDK2 and CDK5), (YSPTSPS)2KK peptide (for CDK7) or AGLT substrate (for FLT3) in the presence of 15/15/0.15/1.5/1 μM ATP (for CDK1/CDK2/CDK5/CDK7/FLT3), 0.05 μCi [γ-^33P]ATP and of the test compound in a final volume of 10 μL, all in a reaction buffer (60 mM HEPES-NaOH, pH 7.5, 3 mM MgCl2, 3 mM MnCl2, 3 μM Na-orthovanadate, 1.2 mM DTT, 2.5 μg/50 μl PEG20,000). The reactions were stopped by adding 5 μL of 3% aq H3PO4. Aliquots were spotted onto P-81 phosphocellulose (Whatman), washed 3× with 0.5% aq H3PO4 and finally air-dried.

[10] = molecular target: T2, FLT3 WT (Homo sapiens, UniProt P36888); experiment: Kinase inhibition assay with [γ-33P]ATP; format: biochemical; details: AGLT substrate, 1 μM ATP
T2 construct: purchased ProQinase GmbH
T2 sequence (P36888 27-993): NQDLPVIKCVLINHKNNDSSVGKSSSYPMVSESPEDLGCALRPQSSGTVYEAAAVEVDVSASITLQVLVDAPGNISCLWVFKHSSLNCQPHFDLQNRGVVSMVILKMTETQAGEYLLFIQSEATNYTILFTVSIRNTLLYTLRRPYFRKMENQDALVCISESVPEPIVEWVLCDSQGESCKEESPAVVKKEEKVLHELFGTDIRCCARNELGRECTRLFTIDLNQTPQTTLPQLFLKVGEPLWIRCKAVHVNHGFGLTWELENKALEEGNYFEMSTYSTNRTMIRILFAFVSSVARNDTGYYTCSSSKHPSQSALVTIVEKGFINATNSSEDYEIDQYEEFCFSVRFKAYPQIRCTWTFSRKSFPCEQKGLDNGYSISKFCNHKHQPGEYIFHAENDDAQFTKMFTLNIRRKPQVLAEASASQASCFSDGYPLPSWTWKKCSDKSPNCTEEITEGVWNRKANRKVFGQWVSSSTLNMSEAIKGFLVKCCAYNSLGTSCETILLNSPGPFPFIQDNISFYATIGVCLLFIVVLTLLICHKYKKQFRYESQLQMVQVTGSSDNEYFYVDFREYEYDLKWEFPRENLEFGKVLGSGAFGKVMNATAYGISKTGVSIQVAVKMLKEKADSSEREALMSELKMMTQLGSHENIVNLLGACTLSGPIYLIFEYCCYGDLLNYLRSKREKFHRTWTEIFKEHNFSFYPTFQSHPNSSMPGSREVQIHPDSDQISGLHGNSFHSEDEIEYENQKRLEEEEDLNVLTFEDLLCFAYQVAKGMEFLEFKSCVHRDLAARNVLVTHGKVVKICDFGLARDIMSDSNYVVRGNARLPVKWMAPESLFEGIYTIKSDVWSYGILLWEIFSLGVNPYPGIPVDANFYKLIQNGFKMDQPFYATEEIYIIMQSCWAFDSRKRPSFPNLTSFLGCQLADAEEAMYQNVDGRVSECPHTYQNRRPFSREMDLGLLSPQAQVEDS
Description: as §3

Row | SMILES | EC50 [1] [µM] | EC50 [2] [µM] | EC50 [3] [µM] | EC50 [4] [µM] | EC50 [5] [µM] | EC50 [6] [µM] | EC50 [7] [µM] | EC50 [8] [µM] | IC50 [9] [µM] | IC50 [10] [µM]
1 | CN(C)CCCCNc1nc(Nc2ccc(N3CCOCC3)nc2)c2ncn(C3CCCC3)c2n1 [Compound 183] | 0.014 | 0.98 | 0.665 | 0.005 | 0.0005 | 0.36 | 0.4 | 0.183 |  | 
2 | CN(C)CCCCNc1nc(Nc2ccc(C(=O)N3CCN(C)CC3)nc2)c2ncn(C3CCCC3)c2n1 [Compound 185] |  |  |  |  |  |  |  |  | 0.003 | 0.02
3 | CN1CC2(C1)CN(Cc1ccc(Nc3nc(NCC(O)CN)nc4c3ncn4C3CCCC3)cc1)C2 (stereo not shown) [Compound 199] |  | 1.36 | 0.67 | 0.043 | 0.011 | 0.925 | 1 | 0.227 | 0.005 | 0.013
4 | NC1CCC(Nc2nc(Nc3ccc(N4CCOCC4)nc3)c3ncn(C4CCCC4)c3n2)CC1 (stereo not shown) [Compound 269] | 0.01 | 1.35 | 0.96 |  | 0.004 |  | 1.49 |  | 0.008 | 
5 | c1cc(Nc2nc(N3CCCCC3)nc3c2ncn3C2CCCC2)ccc1CN1CCOCC1 [Compound 271] | 1.37 | 8.28 | 12.3 | 0.431 | 0.701 | > 10 | 7.62 | 2.16 | 1.98 | 0.073
6 | OCCNc1nc(Nc2ccc(CN3CCOCC3)cc2)c2ncn(C3CCCC3)c2n1 [Compound 274] | 0.503 |  |  |  | 0.074 |  |  |  | 1.17 | 
7 | OCCCNc1nc(Nc2ccc(CN3CCOCC3)cc2)c2ncn(C3CCCC3)c2n1 [Compound 275] | 0.73 |  |  |  | 0.066 |  |  |  | 3.01 | 
8 | OCCCCNc1nc(Nc2ccc(CN3CCOCC3)cc2)c2ncn(C3CCCC3)c2n1 [Compound 276] |  |  |  |  | 0.029 |  |  |  | 1.8 | 
